In patent US7767648B2, “Tissue specific prodrugs” (priority 2000, dated 2010):
Numbered stars: 1 amine (or outer) side, 2 acyl side, 3 side chain; on linkers, the order of the positions; unused ones are H or OH. Square brackets hold non-standard residues; d marks the D form. Peptide text beside a SMILES is read from it. γGlu = O=C(O)[C@H](CCC(=O)[*:2])N[*:1]

Assays:
[1] = Cytotoxic activity of thapsigargin and its debutanoyl derivative; assay type: cell-based; settings: cell line not stated
Protocol: The starting material for all the synthesized analogs is 8-O-debutanoylthapsigargin, which is easily available by triethylamine catalyzed methanolysis of thapsigargin. Removal of the butanoyl results in loss of cytotoxic activity with an LD50 of >50 μM compared to <100 nM for thapsigargin. Anhydrides of dicarboxylic acids of various lengths afforded analogs in which the acyl group attached to the O-8 ended in a free carboxylic acid. A dicyclohexylcarbodiimide (DCCI) promoted coupling of a 2,4-diaminoarene to the carboxylic acid analogs affords the derivatives in which contain a primary aromatic amine as a potential coupling point for additional moeities.

[2] = Stability of PSMA substrates in mouse plasma, 18 hour incubation, HPLC; assay type: in vitro ADME; settings: for % APA-Glu or -Asp: 18 hour incubation in mouse plasma
From the text: (§1) In order that the prodrugs can be administered systemically via the blood, their stability in sera must be sufficiently high to avoid hydrolysis or other degradative processes which may occur prior to the prodrugs reaching their target tissues. In addition to GGH activity, a human blood plasma glutamate carboxypeptidase (PGCP) that has significant sequence homology to PSMA and glutamate carboxypeptidase activity has been identified. Therefore, to assay hydrolysis by GGH and other serum carboxypeptidases like PGCP, the APA-Glu*Glu*Glu*Glu*Asp, APA-Glu*Glu*Glu*Glu*Gln, and APA-Glu*Glu*Glu*Glu*Glu substrates were incubated in human and mouse plasma and hydrolysis determined by HPLC analysis after an 18-hour incubation, as shown in Table 3. As noted, GGH efficiently hydrolyzes poly-γ-glutamate chains as well as poly-γ-glutamated folate and methotrexate. GGH, however, is unable to hydrolyze α-linked peptides.
(§2) In Tables 1-3, to simplify identification of the type of amino acid linkages employed, α-linkages are denoted by a hyphen (for example, Glu-Glu) and all side-chain linkages are denoted by a star (for example, Glu*Glu). The column labeled “% PSMA Hydrolysis” refers to the percentage of hydrolysis of a substrate to APA-Asp or to APS-Glu by purified PSMA. The column labeled “% APA-Asp or -Glu” refers to the percentage of hydrolysis of substrate to APA-Asp or APA-Glu. The column labeled “% Prodrug Remaining” refers to the area of the HPLC peak attributable to starting material divided by the areas of HPLC peaks attributable to starting material, intermediate products, and final products. […] “ND” means “not determined,” in that the experiment was not performed.

[3] = Stability of PSMA substrates in human plasma, 18 hour incubation, HPLC; assay type: in vitro ADME; settings: for remaining at 18 h / % APA-Glu or -Asp: 18 hour incubation in human plasma; for remaining at 18 h: HPLC peak area of starting material over all peaks, read-out: % Prodrug Remaining; for % APA-Glu or -Asp: hydrolysis of substrate to APA-Asp or APA-Glu; for stability in serum (in words): species not stated
From the text: as §1, §2

PSMA = PSMA (Homo sapiens, UniProt Q04609); assay: Hydrolysis of methotrexate analog substrates by purified PSMA (HPLC); assay type: biochemical; settings: for % PSMA hydrolysis 24 h / % PSMA hydrolysis 48 h: Table 3, hydrolysis of substrate to APA-Asp or APA-Glu by purified PSMA
Sequence of PSMA (Q04609 whole entry): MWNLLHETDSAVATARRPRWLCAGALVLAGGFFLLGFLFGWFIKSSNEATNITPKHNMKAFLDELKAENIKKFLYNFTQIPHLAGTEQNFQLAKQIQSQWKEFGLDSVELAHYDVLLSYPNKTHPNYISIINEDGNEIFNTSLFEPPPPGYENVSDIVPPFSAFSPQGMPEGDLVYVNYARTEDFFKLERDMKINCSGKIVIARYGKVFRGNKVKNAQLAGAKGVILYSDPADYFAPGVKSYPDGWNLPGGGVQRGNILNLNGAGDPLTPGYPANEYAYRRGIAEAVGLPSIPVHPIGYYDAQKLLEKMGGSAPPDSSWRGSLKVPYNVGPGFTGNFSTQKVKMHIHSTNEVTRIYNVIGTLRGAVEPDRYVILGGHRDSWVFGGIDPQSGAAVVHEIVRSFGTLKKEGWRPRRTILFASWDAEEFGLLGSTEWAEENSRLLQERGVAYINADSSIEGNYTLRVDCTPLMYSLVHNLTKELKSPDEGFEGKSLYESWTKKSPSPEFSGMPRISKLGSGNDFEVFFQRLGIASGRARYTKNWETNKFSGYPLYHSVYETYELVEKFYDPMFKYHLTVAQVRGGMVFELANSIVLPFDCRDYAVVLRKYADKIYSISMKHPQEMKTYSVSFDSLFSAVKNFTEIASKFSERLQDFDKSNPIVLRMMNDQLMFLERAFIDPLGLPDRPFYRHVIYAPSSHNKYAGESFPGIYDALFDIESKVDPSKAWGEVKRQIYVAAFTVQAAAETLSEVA
Protocol: The extent to which various peptide substrates are hydrolyzed by PSMA was determined by synthesizing a series of methotrexate analogs including the 4-N[N-2,4-diamino-6-pteridinyl-methyl)-N-methylamino-benzoate] (APA) portion of methotrexate coupled to a variety of peptides. Poly-glutamated methotrexate is available from Schirks Laboratories in Jona, Switzerland.
A series of α-linked peptides were investigated for PSMA hydrolysis. […] In Tables 1-3, to simplify identification of the type of amino acid linkages employed, α-linkages are denoted by a hyphen (for example, Glu-Glu) and all side-chain linkages are denoted by a star (for example, Glu*Glu).
Substrate specificity for the pteroyl poly-γ-glutamyl carboxypeptidase (folate hydrolase) activity of PSMA was determined by synthesizing a series of γ-linked methotrexate analogs and assaying them for hydrolysis by PSMA.
as §2

TSU cancer cells = assay: Loss of clonogenic survival of TSU cancer cells after exposure to methotrexate analogs; assay type: cell-based; settings: 48 hours of exposure
From the text: A number of methotrexate analogs were studied for their effect on clonogenic survival of TSU cancer cells. One such analog is L-aspartic acid, N-[4-[[(2,4-diamino-5-ethyl-6-quiazolinyl)methyl]amino]benzoyl]-sesquihydrate, also known as NSC 184692, available from the NCI Developmental Therapeutics Branch. Another compound is L-aspartic acid, N-[2-chloro-5-[[(2,4-diamino-5-methyl-6-quiazolinyl)methyl]amino]benzoyl]-dihydrate, also known as NSC 132483. Another compound is L-aspartic acid, N-[2-chloro-4-[[(2,4-diamino-6-pteridinyl)methyl]amino]benzoyl]-monohydrate, also known as NSC 134033.
The loss of clonogenic survival following treatment of TSU cancer cells with NSC 184692 and 132483 has been investigated after 48 hours of exposure, and the results are listed in Table 4.

prostate cancer cells = assay: Induction of apoptotic death of prostate cancer cells; assay type: cell-based; settings: cell-proliferation independent
Protocol: The TG analog was synthesized by coupling the primary amine of 12ADT to the γ-carboxyl of glutamate, leaving the α-carboxyl of glutamate free to link to other amino acids, as shown in FIG. 2. The 12-ADT*Glu is a potent, cell-proliferation independent inducer of the apoptotic death of prostate cancer cells (LD50 is approximately 50 nM). The corresponding analog consisting of 12-ADT linked to the α-carboxyl of glutamate (that is, 12ADT-Glu) is also a suitable analog, as shown in FIG. 2. The prodrug containing 12ADT*Glu coupled to the longer amino acid chain (that is, 12ADT*Glu-Glu*Glu*Asp-Glu) can also be a suitable substrate. The 12ADT-Glu*Glu*Glu*Asp-Glu prodrug may also be cleaved by PSMA, which may cleave the last peptide bond in the absence of a free α-carboxyl. […] This analog can then be linked via either the α- or γ-carboxyl to a peptide chain.

C/C=C(/C)C(=O)O[C@H]1C(C)=C2[C@H]([C@@H]1OC(=O)CCCCCCC)[C@@](C)(OC(C)=O)C[C@H](O)[C@@]1(O)[C@H]2OC(=O)[C@@]1(C)O [8-O-debutanoylthapsigargin]
LD50 (cytotoxic activity) [1]: > 50 µM

CN(Cc1cnc2nc(N)nc(N)c2n1)c1ccc(C(=O)N[C@@H](CC(=O)O)C(=O)N[C@@H](CCC(=O)N[C@@H](CCC(=O)N[C@@H](CC(=O)O)C(=O)N[C@@H](CCC(=O)O)C(=O)O)C(=O)O)C(=O)O)cc1 [APA-Asp-Glu*Glu*Asp-Glu]
% APA-Glu or -Asp [2]: 2%
remaining at 18 h [3]: 100%
% APA-Glu or -Asp [3]: 0%

CN(Cc1cnc2nc(N)nc(N)c2n1)c1ccc(C(=O)N[C@@H](CC(=O)O)C(=O)N[C@@H](CCC(=O)O)C(=O)O)cc1 [APA-Asp-Glu]
remaining at 18 h [3]: 99%
% APA-Glu or -Asp [3]: 1%
hydrolysis in human serum (in words) ([3]; 18 hour incubation in human serum, HPLC): no significant hydrolysis

CN(Cc1cnc2nc(N)nc(N)c2n1)c1ccc(C(=O)N[C@@H](CCC(=O)N[C@@H](CCC(=O)N[C@@H](CCC(=O)N[C@@H](CC(=O)O)C(=O)N[C@@H](CCC(N)=O)C(=O)O)C(=O)O)C(=O)O)C(=O)O)cc1 [APA-Glu*Glu*Glu*Asp-Gln]
remaining at 18 h [3]: 76%
% APA-Glu or -Asp [3]: 13%

CN(Cc1cnc2nc(N)nc(N)c2n1)c1ccc(C(=O)N[C@@H](CCC(=O)N[C@@H](CCC(=O)N[C@@H](CCC(=O)N[C@@H](CC(=O)O)C(=O)N[C@@H](CCC(=O)O)C(=O)O)C(=O)O)C(=O)O)C(=O)O)cc1 [APA-Glu*Glu*Glu*Asp-Glu]
% APA-Glu or -Asp [2]: 5%
remaining at 18 h [3]: 57%
% APA-Glu or -Asp [3]: 23%

CN(Cc1cnc2nc(N)nc(N)c2n1)c1ccc(C(=O)N[C@@H](CCC(=O)N[C@@H](CCC(=O)N[C@@H](CCC(=O)N[C@@H](CCC(=O)N[C@@H](CCC(N)=O)C(=O)O)C(=O)O)C(=O)O)C(=O)O)C(=O)O)cc1 [APA-Glu*Glu*Glu*Glu*Gln]
% APA-Glu or -Asp [2]: 62%
remaining at 18 h [3]: 26%
% APA-Glu or -Asp [3]: 6%
% PSMA hydrolysis 24 h (PSMA): 97%
% PSMA hydrolysis 48 h (PSMA): 100%
hydrolysis by PSMA (in words) (PSMA; text summary of the tables): to a greater extent after 24 hours than any of the γ-linked dipeptide analogs

CN(Cc1cnc2nc(N)nc(N)c2n1)c1ccc(C(=O)N[C@@H](CCC(=O)N[C@@H](CCC(=O)N[C@@H](CCC(=O)N[C@@H](CCC(=O)N[C@@H](CCC(=O)O)C(=O)O)C(=O)O)C(=O)O)C(=O)O)C(=O)O)cc1 [APA-Glu*Glu*Glu*Glu*Glu, reference compound]
% APA-Glu or -Asp [2]: 68%
remaining at 18 h [3]: 11%
% APA-Glu or -Asp [3]: 11%
% PSMA hydrolysis 24 h (PSMA): 96%
% PSMA hydrolysis 48 h (PSMA): 100%

N[C@@H](CC(=O)O)C(=O)N[C@@H](CCC(=O)N[C@@H](CCC(=O)N[C@@H](CC(=O)O)C(=O)N[C@@H](CCC(=O)O)C(=O)O)C(=O)O)C(=O)O [Asp-Glu*Glu*Asp-Glu] (H-D[γGlu][γGlu]DE-OH; C-terminus assumed)
stability to hydrolysis in mouse plasma (in words) ([2]; mouse plasma): completely stable to hydrolysis
stability to hydrolysis in human plasma (in words) ([3]; human plasma): completely stable to hydrolysis

NC(=O)CC[C@H](NC(=O)[C@H](CC(=O)O)NC(=O)CC[C@H](NC(=O)CC[C@H](NC(=O)CC[C@H](N)C(=O)O)C(=O)O)C(=O)O)C(=O)O [Glu*Glu*Glu*Asp-Gln] ({γGlu-γGlu-γGlu}-Asp-Gln-OH; C-terminus assumed)
stability in serum (in words) [3]: high stability in serum

N[C@@H](CCC(=O)N[C@@H](CCC(=O)N[C@@H](CCC(=O)N[C@@H](CC(=O)O)C(=O)N[C@@H](CCC(=O)O)C(=O)O)C(=O)O)C(=O)O)C(=O)O [Glu*Glu*Glu*Asp-Glu] ({γGlu-γGlu-γGlu}-Asp-Glu-OH; C-terminus assumed)
stability in serum (in words) [3]: high stability in serum

Cc1c(CNc2ccc(Cl)c(C(=O)N[C@@H](CC(=O)O)C(=O)O)c2)ccc2nc(N)nc(N)c12.O.O [NSC 132483, L-aspartic acid, N-[2-chloro-5-[[(2,4-diamino-5-methyl-6-quiazolinyl)methyl]amino]benzoyl]-dihydrate]
Loss of clonogenic survival (TSU cancer cells; 0.01 μmolar): 0%
Loss of clonogenic survival (TSU cancer cells; 0.05 μmolar): 0%
Loss of clonogenic survival (TSU cancer cells; 0.1 μmolar): 14%
Loss of clonogenic survival (TSU cancer cells; 0.5 μmolar): 39%
Loss of clonogenic survival (TSU cancer cells; 1 μmolar): 50%
Loss of clonogenic survival (TSU cancer cells; 5 μmolar): 78%

CCc1c(CNc2ccc(C(=O)N[C@@H](CC(=O)O)C(=O)O)cc2)ccc2nc(N)nc(N)c12.CCc1c(CNc2ccc(C(=O)N[C@@H](CC(=O)O)C(=O)O)cc2)ccc2nc(N)nc(N)c12.O.O.O [NSC 184692, L-aspartic acid, N-[4-[[(2,4-diamino-5-ethyl-6-quiazolinyl)methyl]amino]benzoyl]-sesquihydrate]
Loss of clonogenic survival (TSU cancer cells; 0.01 μmolar): 17%
Loss of clonogenic survival (TSU cancer cells; 0.05 μmolar): 44%
Loss of clonogenic survival (TSU cancer cells; 0.1 μmolar): 57%
Loss of clonogenic survival (TSU cancer cells; 0.5 μmolar): 82%
Loss of clonogenic survival (TSU cancer cells; 1 μmolar): 88%
Loss of clonogenic survival (TSU cancer cells; 5 μmolar): 93%

O=C(O)c1cc[c]([Hg+])cc1.[OH-] [p-hydroxymercuribenzoate, reference compound]
effect of added inhibitor on hydrolysis of the substrates in plasma ([2]; addition of the non-specific inhibitor of GGH and other cysteine proteases): complete inhibition of hydrolysis

C/C=C(/C)C(=O)O[C@H]1C(C)=C2[C@H]([C@@H]1OC(=O)CCCCCCC)[C@@](C)(OC(C)=O)C[C@H](OC(=O)CCC)[C@@]1(O)[C@H]2OC(=O)[C@@]1(C)O [thapsigargin]
LD50 (cytotoxic activity) [1]: < 0.1 µM

N-L-γ-glutamyl-12-aminododecanoyl-8-0-debutanoyl Thapsigargin [12-ADT*Glu]
LD50 (apoptotic death of prostate cancer cells) (prostate cancer cells): approximately 50 nM
